Assay results reported in BigSolDB 2.1.

Nc1ccc(S(=O)(=O)[O-])c(N)c1.[Na+]
solubility (mole fraction)
Details | in isopropanol | in methanol | in propylene glycol
273.15 K | 2.2e-05 | 0.000977 | 0.000831
278.15 K | 2.78e-05 | 0.00109 | 0.00121
283.15 K | 3.51e-05 | 0.00145 | 0.00145
288.15 K | 4.43e-05 | 0.00173 | 0.00196
293.15 K | 5.57e-05 | 0.00228 | 0.00235
298.15 K | 6.99e-05 | 0.00274 | 0.0028
303.15 K | 8.76e-05 | 0.00318 | 0.00359
308.15 K | 0.000109 | 0.00395 | 0.00431
313.15 K | 0.000136 | 0.00466 | 0.00577
318.15 K | 0.00017 | 0.00558 | 0.00749
323.15 K | 0.000211 | 0.00661 | 0.00963
